This experiment has as its target Active human KLK7 (SCCE) (Homo sapiens (Human), UniProt P49862). The experiment is described as follows: KLK7 Inhibitor Test. The class given is biochemical. The following applies: substrate MeO-Suc-Arg-Pro-Tyr-pNA, pH 7.2, 37° C., absorbance at 405 nm. The procedure: KLK7 Inhibitor Test Substrate:(MeO-Suc-[…]), acetate salt, Peptide international, lot #906841, previously named S-2586 Enzyme: […] Buffer: 10 mM NaPhospate, 0.5 M NaCl, pH 7.2 […] 10 μl of substance in DMSO was added to wells giving final concentrations of 20 μ[…], and 0.15625 μM. 40 μl of active KLK7 (SCCE) (diluted to 12.5 μg/ml in activity buffer) was added all wells except blank to which activity buffer was added. […] The mean value V of each sample was calculated (n=2 for the substances and n=4 for the control). From the values of V the % of total activity was calculated as (Vinhibitor/Vcontrol (no inhibitor))×100. Plotting and calculation was then done in originPro. % of total activity (y) was plotted vs. log [inhibitor] (log x) and a function of dose response y=A1+(A2-A1)/(1+10^((LOG(x0)-x)*p)) where A1=Bottom platue, A2=Top platue, x0=EC50 and p=Hill slope was fitted to the curve. […] The IC50 values were used to identify KLK7 inhibitors according to the invention.
Active human KLK7 (SCCE), sequence (P49862 30-253): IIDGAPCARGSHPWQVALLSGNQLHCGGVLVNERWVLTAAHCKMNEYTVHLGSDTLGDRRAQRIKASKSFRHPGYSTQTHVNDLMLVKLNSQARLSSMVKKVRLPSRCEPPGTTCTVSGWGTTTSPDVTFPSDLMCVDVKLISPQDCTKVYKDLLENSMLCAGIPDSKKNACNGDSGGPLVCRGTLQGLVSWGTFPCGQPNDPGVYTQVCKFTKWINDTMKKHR
Molecule `Cc1cc(NC(=O)C(C)OC(=O)Cc2ccc(Cl)cc2)no1` (stereo not shown) [Compound 1, [1-methyl-2-[(5-methylisoxazol-3-yl)amino]-2-oxo-ethyl] 2-(4-chlorophenyl)acetate] came in with an IC50 of 39 nM. `CC(OC(=O)Cc1ccc(Cl)cc1)C(=O)Nc1ccc(F)cc1` (stereo not shown) [Compound 2] had an IC50 of 70 nM. On to `CCC(OC(=O)Cc1ccc(Cl)cc1)C(=O)Nc1cc(C)on1` (stereo not shown) [Compound 3, 1-[(5-methylisoxazol-3-yl)carbamoyl]propyl 2-(4-chlorophenyl)acetate], for which the concentration for half-maximal inhibition (IC50) was determined as 80 nM. With `COc1ccc(NC(=O)C(C)OC(=O)Cc2ccc(Cl)cc2)cc1` (stereo not shown) [Compound 4, [2-(4-methoxyanilino)-1-methyl-2-oxo-ethyl] 2-(4-chlorophenyl)acetate], the half-maximal inhibitory concentration (IC50) amounted to 80 nM.

On to `CC(OC(=O)Cc1ccc(Cl)cc1)C(=O)Nc1ccccc1` (stereo not shown) [Compound 5], for which the IC50 turned out to be 90 nM. The figure for `CCC(OC(=O)Cc1ccc(Cl)cc1)C(=O)Nc1ccc(OC)cc1` (stereo not shown) [Compound 6, 1-[(4-methoxyphenyl)carbamoyl]propyl 2-(4-chlorophenyl)acetate] is 120 nM. Molecule `COc1ccc(CC(=O)OC(C)C(=O)Nc2cc(C)on2)cc1` (stereo not shown) [Compound 7, [1-methyl-2-[(5-methylisoxazol-3-yl)amino]-2-oxo-ethyl] 2-(4-methoxyphenyl) acetate] came in with a concentration for half-maximal inhibition (IC50) of 130 nM. Regarding `CCC(OC(=O)Cc1ccc(Cl)cc1)C(=O)Nc1ccc(F)cc1` (stereo not shown) [Compound 8, 1-[(4-fluorophenyl)carbamoyl]propyl 2-(4-chlorophenyl)acetate], half-maximal inhibition (IC50) was put at 140 nM.

In the case of `CCC(OC(=O)Cc1ccc(Cl)cc1)C(=O)Nc1ccccc1` (stereo not shown) [Compound 9, 1-(phenylcarbamoyl)propyl 2-(4-chlorophenyl)acetate], inhibition was half-maximal at 150 nM (IC50).

Take `CCC(OC(=O)CCC1CCCC1)C(=O)Nc1ccc(OC)cc1` (stereo not shown) [Compound 11, 1-[(4-methoxyphenyl)carbamoyl]propyl 3-cyclopentylpropanoate]: 150 nM corresponded to half-maximal inhibition (IC50). Consider `CCC(OC(=O)Cc1ccc(OC)cc1)C(=O)Nc1cc(C)on1` (stereo not shown) [Compound 12, 1-[(5-methylisoxazol-3-yl)carbamoyl]propyl 2-(4-methoxyphenyl) acetate], for which half-maximal inhibition (IC50) was put at 150 nM.

`COc1ccc(NC(=O)C(OC(=O)Cc2ccc(Cl)cc2)c2ccccc2)cc1` (stereo not shown) [Compound 13, [2-(4-methoxyanilino)-2-oxo-1-phenyl-ethyl] 2-(4-chlorophenyl)acetate] showed a 50% inhibitory concentration (IC50) of 170 nM.

On to `Cc1cc(NC(=O)C(C)OC(=O)CCC2CCCC2)no1` (stereo not shown) [Compound 14, [1-methyl-2-[(5-methylisoxazol-3-yl)amino]-2-oxo-ethyl] 3-cyclopentylpropanoate], for which the half-inhibitory concentration (IC50) stood at 180 nM. For the molecule `COc1ccc(CC(=O)OC(C)C(=O)Nc2ccc(OC)cc2)cc1` (stereo not shown) [Compound 15, [2-(4-methoxyanilino)-1-methyl-2-oxo-ethyl] 2-(4-methoxyphenyl)acetate], half-maximal inhibition (IC50) required 180 nM. `CCC(OC(=O)CCC1CCCC1)C(=O)Nc1cc(C)on1` (stereo not shown) [Compound 16, 1-[(5-methylisoxazol-3-yl)carbamoyl]propyl 3-cyclopentylpropanoate] showed an IC50 of 190 nM. As for `Cc1cc(NC(=O)C(OC(=O)Cc2ccc(Cl)cc2)c2ccccc2)no1` (stereo not shown) [Compound 17, [2-[(5-methylisoxazol-3-yl)amino]-2-oxo-1-phenyl-ethyl] 2-(4-chlorophenyl)acetate], it took 190 nM to reach half-maximal inhibition (IC50).

With `CCCC(OC(=O)C(c1ccccc1)c1ccccc1)C(=O)Nc1cc(C)on1` (stereo not shown) [Compound 18], the IC50 turned out to be 220 nM. The figure for `COc1ccc(NC(=O)C(OC(=O)CCC2CCCC2)c2ccccc2)cc1` (stereo not shown) [Compound 19, [2-(4-methoxyanilino)-2-oxo-1-phenyl-ethyl] 3-cyclopentylpropanoate] is 230 nM; for `Cc1cc(NC(=O)C(OC(=O)CCC2CCCC2)c2ccccc2)no1` (stereo not shown) [Compound 20, [2-[(5-methylisoxazol-3-yl)amino]-2-oxo-1-phenyl-ethyl] 3-cyclopentylpropanoate] it is 230 nM. As for `COc1ccc(CC(=O)OC(C)C(=O)Nc2ccccc2)cc1` (stereo not shown) [Compound 21], inhibition was half-maximal at 260 nM (IC50). `CC(OC(=O)CCC1CCCC1)C(=O)Nc1ccc(F)cc1` (stereo not shown) [Compound 22]: the 50% inhibitory concentration (IC50) came out at 260 nM.

As for `CCC(OC(=O)Cc1ccc(OC)cc1)C(=O)Nc1cc(C)on1` (stereo not shown) [Compound 23, 1-[(5-methylisoxazol-3-yl)carbamoyl]propyl 2-(4-methoxyphenyl)acetate], the IC50 was determined as 270 nM. `CCC(OC(=O)Cc1ccc(OC)cc1)C(=O)Nc1ccc(OC)cc1` (stereo not shown) [Compound 24, 1-[(4-methoxyphenyl)carbamoyl]propyl 2-(4-methoxyphenyl)acetate] had an IC50 of 280 nM. Molecule `CCC(OC(=O)CCC1CCCC1)C(=O)Nc1ccc(F)cc1` (stereo not shown) [Compound 25, 1-[(4-fluorophenyl)carbamoyl]propyl 3-cyclopentylpropanoate] displayed an IC50 of 310 nM. The figure for `CCC(OC(=O)Cc1ccc2c(c1)OCO2)C(=O)Nc1cc(C)on1` (stereo not shown) [Compound 26, 1-[(5-methylisoxazol-3-yl)carbamoyl]propyl 2-(1,3-benzodioxol-5-yl)acetate] is 320 nM; for `CCCCC(OC(=O)C(c1ccccc1)c1ccccc1)C(=O)Nc1cc(C)on1` (stereo not shown) [Compound 27] it is 330 nM; for `CC[C@H](OC(=O)C(c1ccccc1)c1ccccc1)C(=O)Nc1cc(C)on1` [Compound 28] it is 340 nM. Regarding `O=C(Cc1ccc(Cl)cc1)OC(C(=O)Nc1ccc(F)cc1)c1ccccc1` (stereo not shown) [Compound 29], the IC50 came to 350 nM. The figure for `CCC(OC(=O)Cc1ccc(OC)cc1)C(=O)Nc1ccc(F)cc1` (stereo not shown) [Compound 30, 1-[(4-fluorophenyl)carbamoyl]propyl 2-(4-methoxyphenyl)acetate] is 360 nM. As for `CC(OC(=O)CCC1CCCC1)C(=O)Nc1ccccc1` (stereo not shown) [Compound 31, (2-anilino-1-methyl-2-oxo-ethyl) 3-cyclopentylpropanoate], half-maximal inhibition (IC50) was put at 370 nM. `O=C(Cc1ccc(Cl)cc1)OC(C(=O)Nc1ccccc1)c1ccccc1` (stereo not shown) [Compound 32, (2-anilino-2-oxo-1-phenyl-ethyl) 2-(4-chlorophenyl)acetate] showed a 50% inhibitory concentration (IC50) of 380 nM. The molecule `CCC(OC(=O)C(c1ccccc1)c1ccccc1)C(=O)Nc1cc(C)on1` (stereo not shown) [Compound 33] showed an IC50 of 390 nM. The figure for `CCC(OC(=O)Cc1ccc(OC)cc1)C(=O)Nc1ccccc1` (stereo not shown) [Compound 34, 1-(phenylcarbamoyl)propyl 2-(4-methoxyphenyl)acetate] is 390 nM; for `COc1ccc(CC(=O)OC(C(=O)Nc2ccc(OC)cc2)c2ccccc2)cc1` (stereo not shown) [Compound 35, [2-(4-methoxyanilino)-2-oxo-1-phenyl-ethyl] 2-(4-methoxyphenyl)acetate] it is 410 nM. As to `COc1ccc(CC(=O)OC(C(=O)Nc2cc(C)on2)c2ccccc2)cc1` (stereo not shown) [Compound 36, [2-[(5-methylisoxazol-3-yl)amino]-2-oxo-1-phenyl-ethyl] 2-(4-methoxyphenyl)acetate], half-maximal inhibition (IC50) required 430 nM. In turn, `O=C(CCC1CCCC1)OC(C(=O)NCc1ccccc1)c1ccccc1` (stereo not shown) [Compound 37, [2-(benzylamino)-2-oxo-1-phenyl-ethyl] 3-cyclopentylpropanoate] had an IC50 of 460 nM.

Turning to `COCCC(OC(=O)C(c1ccccc1)c1ccccc1)C(=O)Nc1cc(C)on1` (stereo not shown) [Compound 38], half-maximal inhibition (IC50) was put at 470 nM.

What is called IC50 is the concentration needed to halve the response being measured. Low values mean greater potency, high ones weaker potency.

Source of the values: patent publication US9744148B2, “Kallikrein 7 inhibitors” (SIXERA PHARMA AB, priority 2014, dated 2017).
